Assay results taken from PubChem BioAssay AID1963597 (National Center for Advancing Translational Sciences (NCATS), 2024).
Non-standard residues stand in square brackets, D forms with d. Residues, ends and D or L forms follow the SMILES beside them. *: point of attachment. Sta = CC(C)C[C@H](N)[C@@H](O)CC(=O)O; Isovaleryl = CC(C)CC(=O)*

Each molecule was assayed on human liver microsomes, metabolic stability half-life (assay: NCATS Human Liver Microsomal (HLM) Stability Profiling). Conditions: higher = more stable; screened at 1 µM (by protocol).
From the text: Assay submitter (PI): Dr. Pranav Shah
NIH Center for Advancing Translational Sciences
Pharmacokinetic issues were the leading cause of drug attrition, accounting for approximately 40% of all cases before the turn of the century. To this end, several high-throughput in vitro assays like microsomal stability have been developed to evaluate the pharmacokinetic profiles of compounds in early stages of drug discovery. At NCATS, a single-point rat liver microsomal (RLM) stability assay is used as a Tier I assay, while human liver microsomal (HLM) stability is employed as a Tier II assay. While it is beneficial to have compound libraries screened for HLM stability, the increasing magnitude of hits routinely generated, and the time- and re-source-intensive nature of the assay makes it important to find alternatives. One strategy is to rely on in silico models that have been developed using data generated from these assays. Herein, we describe the development of an HLM stability prediction model using our in-house dataset of ~7,000 compounds, employing both traditional and advanced machine learning methods. Additionally, the strong correlation between our RLM and HLM data was further reinforced by the fact that our HLM model performance improved after adding RLM stability predictions as an input descriptor. […] The best model along with a subset of our dataset has been made publicly accessible on the NCATS@ADME website for the benefit of the greater drug discovery community.
Microsomal Stability Assay
The substrate depletion method, also called the in vitro t1/2 method was used to analyze test compounds. Incubation and liquid handling were carried out using a previously described method (Shah et al., 2016). Briefly, each reaction mixture (110 µL) consisted of a test article (1 µM), human liver microsomes (0.5 mg/mL), and NADPH regenerating system in phosphate buffer at pH 7.4. Samples were incubated in 384-well plates at 37 degrees C for 0, 5, 10, 15, 30 and 60 min. At each time point, 10 µL of the incubation mixture was aspirated into another 384-well plate which contained cold acetonitrile (ACN) with internal standard (albendazole). All plates were centrifuged at 3000 rpm for 20 min at 4 degrees C, and the supernatants were transferred to a 384-well injection plate. Sample quantification and analysis was performed using a previously described method (Shah et al., 2016, Siramshetty et al., 2020).
1: Shah, P. et al. An Automated High-Throughput Metabolic Stability Assay Using an Integrated High-Resolution Accurate Mass Method and Automated Data Analysis Software. Drug Metab Dispos 44, 1653-1661 (2016).
2: Siramshetty et al. Retrospective assessment of rat liver microsomal stability at NCATS: data and QSAR models. Sci Rep 26;10(1):20713 (2020).

SMILES	half-life [min]
Nc1ccc(S(=O)(=O)Nc2ccccc2)cc1	> 120
NC(=O)c1cnc(N[C@@H]2CCCC[C@H]2N)nc1Nc1cccc(-n2nccn2)c1	90.7
CC(C)CC(=O)N[C@H](C(=O)N[C@H](C(=O)N[C@@H](CC(C)C)[C@@H](O)CC(=O)N[C@@H](C)C(=O)N[C@@H](CC(C)C)[C@@H](O)CC(=O)O)C(C)C)C(C)C (Isovaleryl-VV[Sta]A[Sta]-OH)	> 120
C#C[C@]1(OC(C)=O)CC[C@H]2[C@@H]3CCC4=C/C(=N/O)CC[C@@H]4[C@H]3CC[C@@]21CC	6.21
CC1(c2ccccc2)N(Cc2ccccc2)C(=O)OC12CCN(Cc1ccc(C(=O)O)cc1)CC2 (stereo not drawn)	> 120
Cc1nc2c(-c3cnc(N)nc3)nc(N3CCOCC3)nc2n1C(C)C	> 120
CCOP(=S)(OCC)Oc1nc(Cl)n(C(C)C)n1	15.1
COc1ccc2c(CNCCc3ccccc3OC)c(C(=O)O)n(Cc3ccc(F)cc3Cl)c2c1	1.79
Fc1ccc(CN2CCC(Nc3ccc(C(F)(F)F)nn3)CC2)cc1F	42.3
C[C@]12CCC(=O)C=C1CC[C@@H]1[C@@H]2CC[C@@]2(C)[C@H]1CC[C@]2(O)C(=O)CO	62.1
O=[N+]([O-])c1cccc(S(=O)(=O)NCCNS(=O)(=O)c2cccc([N+](=O)[O-])c2)c1	52.3
CC(C)(C)c1ccc(CNC(=S)NCc2ccc(NS(C)(=O)=O)c(F)c2)cc1	43
COC(=O)N[C@@H](C)CNc1nccc(-c2cn(C(C)C)nc2-c2cc(Cl)cc(NS(C)(=O)=O)c2F)n1	34.4
COc1cc(Nc2nc3ccccc3nc2NS(=O)(=O)c2ccc(NC(=O)c3ccc(OC)c(C)c3)cc2)cc(OC)c1	> 120
Cn1cc(-c2cnc3ccc4ccc(CS(=O)(=O)NCc5ccccn5)cc4c(=O)c3c2)cn1	17.1
Fc1ccc(-c2nc(C3CCNCC3)sc2-c2ccnc(NC3CC3)n2)cc1	> 120
NC(=O)N1CCC(CC(=O)N2CCC(C3c4ncc(Br)cc4CCc4cc(Cl)cc(Br)c43)CC2)CC1 (stereo not drawn)	5.45
NC(=O)c1c(OCc2c(F)cc(Br)cc2F)nsc1NC(=O)NCCCCN1CCCC1	> 120
COc1cc(N2CCN(C)CC2)ccc1Nc1nccc(-c2cn(C)c3cnccc23)n1	> 120
CC(C)c1ccccc1OC(=O)NCCc1ccc2ccccc2c1	4.54
NCCc1ccc(O)cc1	> 120
Cc1nc(C2CCCCC2)c(-c2ccc(S(N)(=O)=O)c(F)c2)o1	30.7

SMILES	half-life [min]
c1ccc(N2CCN(CCc3nn[nH]n3)CC2)cc1	> 120
Cc1cc(C)c(/C=C2\C(=O)Nc3ccccc32)[nH]1	11
CCOCCn1c(C2CCN(CCc3ccc(C(C)(C)C(=O)O)cc3)CC2)nc2ccccc21	> 120
C[C@H](N)C(=O)N1CCC(n2nccc2NC(=O)Nc2ccccc2Cl)CC1	> 120
CC(C)(C)c1coc([C@@H]2COCCN2Cc2ccc(C(=O)O)cc2)n1	80.9
Cc1cnc(NC(=O)c2cc(S(=O)(=O)N(C)C)ccc2N2CCCC2)s1	24.3
CCCCCOc1cc2c(cc1-c1cc(/C=C/C(=O)O)ccc1O)C(C)(C)CCC2(C)C	10.8
COC(=O)c1cc(S(N)(=O)=O)ccc1OC	43.2
COc1cc(C(=O)NC(c2ccccc2Cl)c2cc(Cl)c3cccnc3c2O)cc(OC)c1OC (stereo not drawn)	25.6
CCOc1cc(NC(C)=O)ccc1C(=O)OC	6.75
CCN(CC)C(=O)C(c1ccccc1)N1CCN(c2ccc(NC(=O)c3ccccc3-c3cccnc3)cc2F)CC1 (stereo not drawn)	4.93
Cn1ncc(Cl)c1-c1cc(C(=O)N[C@H](CN)Cc2ccc(F)c(F)c2)sc1Cl	109
O=C(O)CC1CCC(c2ccc(-c3ccc(Nc4ccc(C(F)(F)F)nc4)cn3)cc2)CC1 (stereo not drawn)	> 120
CC1=C(CC(=O)O)c2cc(F)ccc2/C1=C\c1ccc(S(C)=O)cc1 (stereo not drawn)	> 120
CCSC(=O)N1CCCCCC1	27.7
CC(=O)OCC(CCn1cnc2cnc(N)nc21)COC(C)=O	2.34
CCOC(=O)c1c(NC(=O)c2ccc(S(=O)(=O)N(C)C3CCCCC3)cc2)sc2c1CCN(C(C)C)C2	2.21
CCCN(CCN1CCN(c2ccccc2OC)CC1)C1CCc2ncsc2C1 (stereo not drawn)	2.54
Cn1nnc2c(C(N)=O)ncn2c1=O	21.1
CC[C@H](C)C(=O)O[C@H]1C[C@@H](C)C=C2C=C[C@H](C)[C@H](CC[C@@H]3C[C@@H](O)CC(=O)O3)[C@H]21	7.05
Cc1cc(O)c(-c2ccc([C@@H](C)CN(C)C)cc2)c2c1[nH]c(=O)c1sccc12	95.3
